According to ChEMBL document CHEMBL3507680, “University of Dundee, Gates Library screen for HepG2 cell viability”:

Assay: Human HepG2 cell viability assay in 384 well format
Assay type: toxicity, cell-based
Set-up: dose 125 nL, time 70.5 hour; cytotoxicity at 70.5 h: concentration not given beside the values
Settings: HepG2 cells, read-out: Inhibition

Compound	cytotoxicity at 70.5 h
COCCNC(=O)c1cc2c(c3ccccc3n2C)n1C(=O)N(C)C	-9.07%
O=C(NC1CCC1)C1=NOC2(CCN(Cc3ccc(F)cc3)C2)C1 (configuration not stated)	14.1%
CCNC(=O)c1c2c(N3CCN(C)CC3)ncnc2n2ccccc12	2.84%
COc1cccc2c1OCC(C(=O)N1CCN(CCS(C)(=O)=O)CC1)C2 (configuration not stated)	-4.99%
COc1ccccc1-n1nc(CC(C)C)nc1CSc1nnc(N)s1	-15.9%
CN1CCC(Cc2noc(CCc3nc4ccccc4nc3O)n2)CC1	-7.26%
O=C(O)[C@@H]1CN(C2CCCCC2)C[C@H]1C1CC1	-13.9%
CCCc1ccc(CN2CCC3(CC2)CNC(=O)C3)o1	21.8%
CC(C)c1cc(CN(C)C(=O)CN2CCNC2=O)no1	18.6%
OCCN(Cc1ccccc1)Cc1nc(-c2ccc3c(c2)OCO3)no1	-9.5%
O=C(O)c1cc(-c2ccncc2)cc(S(=O)(=O)NCc2ccccn2)c1	-4.27%
Cc1csc(CNc2nc3c(s2)c(C)nn3C)n1	-4.74%
O=C(NCC(F)F)c1ccc(S(=O)(=O)NCCc2c[nH]cn2)cc1	-6.02%
CCOC(=O)CC1CCCCN1C(=O)c1cc(=O)[nH]c(=O)[nH]1 (configuration not stated)	11.7%
Cc1ccccc1CN1C[C@@H](CN(C)CCO)[C@@H](CO)C1	-11.6%
COCCC(=O)N1C[C@H]2CC[C@@H]1CN(C1Cc3ccccc3C1)C2	-10%
O=C(C1CCOCC1)N1CC[C@@](O)(c2ccccc2)[C@H]2CCCC[C@@H]21	24.9%
CCC(CO)N(Cc1cccc(-n2cccn2)c1)Cc1cccs1 (configuration not stated)	-4.44%
COCCN1CCC(CN(Cc2ccncc2)C2CCCCC2)CC1	-6.59%
Cc1nc2c(c(N3CCCOCC3)n1)CCN(c1nccs1)CC2	-6.82%
CC(O)Cc1cn(CC2CCN(c3nccc4occc34)CC2)nn1 (configuration not stated)	4.74%
O=C(CCCn1cncn1)N1CCCC1c1nc(-c2ccccc2)no1 (configuration not stated)	-1.82%
COc1cc(N[C@@H](Cc2ccccc2)C(N)=O)ncn1	-5.19%

Compound	cytotoxicity at 70.5 h
Fc1cccc(-c2noc3c2CN(Cc2cncn2C2CC2)CC3)c1	-11.3%
CN(C)S(=O)(=O)N1C[C@@H]2CC[C@H](C1)N(CCC(=O)NCc1ccco1)C2	2.74%
CC(C)N1CCOC(CC(=O)N2CCCN(Cc3ccncc3)CC2)C1 (configuration not stated)	15.7%
CCc1ccc(CN2CCN(C)C3(CCC(=O)N(CC4CC4)CC3)C2)o1 (configuration not stated)	-1.68%
O=C(CSc1ccccn1)N1CCC(OCc2cccnc2)CC1	-18.6%
COc1nccc(N2CC[C@@H](N3CCN(C)CC3)[C@H](O)C2)c1C#N	-6.47%
COc1ccc(-c2cc(N)ccn2)c(OC)c1OC	-9.71%
CN1CCN(CC(C)(C)C)CC1CCO (configuration not stated)	-3.64%
Cc1occc1C(=O)N1CCCC1c1ccc(C(=O)N2CCOCC2)s1 (configuration not stated)	9.73%
COC(C)(C)CNC(=O)C1CCC(=O)N(C2CCCC2)C1 (configuration not stated)	0.695%
COc1ccc(CN2C[C@@H]3CC[C@H](C2)N(S(C)(=O)=O)C3)cc1	-7.94%
C/C=C(\C)CN1C[C@@H](NC(=O)c2ccc(O)c(Cl)c2)C[C@H]1C(=O)NCC	-11%
Cc1nccc(N2CCC(=O)N(CC3CC3)C(C(C)C)C2)n1 (configuration not stated)	-1.5%
Nc1nc(CCCNC(=O)c2ccc(C3CCCNC3)cc2)cs1 (configuration not stated)	-7.45%
NC(=O)COc1ccc(CN2CCNC(C(=O)NC3CC3)C2)cc1Cl (configuration not stated)	-10.1%
CCNC(=O)Cn1ncc(N(C)CCc2ccccc2)cc1=O	8.48%
CC(=O)c1cccc(-c2nc3c([nH]2)CCNC3)c1F	-13.2%
CCSCC(C)NCc1cn2ccccc2n1 (configuration not stated)	-20.2%
CSc1ccc(CN(C(=O)c2cc(=O)[nH]c(=O)[nH]2)C2CC2)cc1	6.51%
O=C1NCCN1CCNc1cc(-c2ccncc2)nc2ccnn12	-10.3%
CC(C)c1nc(CN(C)C(=O)c2ccc(CN3CCCCC3)cc2)cs1	-7.38%
CCOc1ccccc1C(C(=O)O)N(C)CC1CCOCC1 (configuration not stated)	21.4%
COc1ccc(N2CCN(C(=O)C3CN(C)C(=O)N3)CC2(C)C)cc1 (configuration not stated)	-8.78%

Compound	cytotoxicity at 70.5 h
Cc1nc2c(C)cccc2cc1C(=O)N1CCC2(CC1)NCCNC2=O	-15.8%
Cc1nc2ccccn2c1CN1C[C@@H](CN2CCOCC2)[C@@H](CO)C1	28.6%
CN(CCc1ncnn1-c1ccccc1Cl)C1CCS(=O)(=O)C1 (configuration not stated)	-17.7%
CS(=O)(=O)Cc1nc(C2CC2)nn1-c1ccccn1	4.03%
CCS(=O)(=O)c1ncc(CN(C)Cc2cccc(OC)c2)n1CCOC	-6.87%
CN1C(=O)CC(C(=O)O)C12CCN(Cc1cc(F)ccc1Cl)CC2 (configuration not stated)	-9.93%
Cc1ncsc1-c1nc(Cc2cccs2)nn1C1CCN(C)CC1	-4.07%
Cc1ccc(OC2(C(=O)O)CCN(C(=O)c3cccs3)CC2)cn1	17.4%
CCCn1cnnc1CNC1CCCC1	5.01%
CCCc1cc(C(=O)N(CC)Cc2ccncc2)[nH]n1	-7.59%
CC1CN(CCC(=O)NCCc2cccnc2)Cc2ccccc2O1 (configuration not stated)	9.39%
CCNC(=O)[C@@H]1C[C@H](NC(=O)c2cncnc2C)CN1Cc1ccsc1	-17%
C[C@H](NC(=O)c1cccc(CCC(C)(C)O)c1)C(N)=O	-0.496%
CN(C)C(=O)c1ccc(C2CCCN2C(=O)c2ccccc2N(C)C)s1 (configuration not stated)	-1.33%
COC(=O)N1CCC(Oc2ccc(C(=O)NCCN(C)C)cc2Cl)CC1	-8.08%
Cc1nc(CN2CCCC(CCc3ccccc3F)C2)c[nH]1 (configuration not stated)	1.04%
CC(C)(Cn1cnc(-c2ccccc2)c1-c1ccco1)N1CCOCC1	-10.2%
CCC(NC(=O)c1cnc(N(C)C)nc1C)c1ccncc1 (configuration not stated)	-6.22%
O=C(NCCC1CN(Cc2c[nH]cn2)CCO1)c1ccccc1O (configuration not stated)	23%
Cc1ocnc1C(=O)N(Cc1cccnc1)C[C@@H]1CCC(=O)N1	-8.79%
CCOc1ncccc1Cn1cc(-c2cncnc2)nn1	-15.8%
Cc1ccc2ncccc2c1CN1CC[C@H](N(C)C)[C@H](CCC(=O)O)C1	-7.41%
Cc1ccsc1-c1nnc(SCC(=O)O)n1C(C)c1ccccc1 (configuration not stated)	-5.54%

Compound	cytotoxicity at 70.5 h
CCN1CCCCC1C(=O)N1CCc2onc(-c3ccc(Cl)cc3)c2C1 (configuration not stated)	-12.9%
COc1cccn(CC(=O)N(C)CCSC)c1=O	-12.7%
CCN(Cc1ccc2cccc(O)c2n1)CC1CCCO1 (configuration not stated)	12.5%
Cc1cc(C)c2c(N3CCCN(C(=O)C4CCC4)CC3)ncnc2n1	-6.75%
CNC(=O)CCN1CCC(c2nnc(Cn3cccn3)n2C2CC2)CC1	-8.33%
Oc1ccccc1N1CCN(c2ncnc3sc4c(c23)CCNC4)CC1	2.19%
CCn1c(-c2ccccc2)nn(CC(=O)NCCc2ccc(C)s2)c1=O	13.9%
OC1(CN2CCC(Oc3cccnc3)CC2)CNCCOC1 (configuration not stated)	-7.48%
COC(=O)N1CCC2(CC1)N=C(CCC(C)C)NC2=O	-8.4%
O=C(CCC1CCN(C(=O)c2cnco2)CC1)NCc1cccc(Cl)c1	-5.59%
CC(=O)N[C@@H](CC(C)C)C(=O)N1CCC(n2cc(CO)nn2)CC1	-4.38%
COc1ccc(-c2ccccc2CCN)c(OC)c1	-10.1%
Cc1cnccc1NCCNC(=O)C1CCCN(Cc2ccco2)C1 (configuration not stated)	9.92%
COCc1ccc(C(=O)N2CCc3c(ncnc3N3CCOCC3)C2)o1	-4.54%
COc1cc(C)c(C2CC(=O)Nc3cc(NS(C)(=O)=O)ccc32)cc1C (configuration not stated)	0.99%
CCCc1nnc2sc(C3CCN(CCOC)CC3)nn12	-3.34%
COc1ccc(F)cc1NC(=O)NCC1(CN2CCOCC2)CC1	-0.333%
CC(Nc1ncnc2sccc12)c1cnn(C)c1 (configuration not stated)	-12.3%
CC(C)C[C@@H](N)C(=O)N(C)Cc1csc(C(C)C)n1	2.05%
CC(C)=CCN1CCNC(=O)C1CC(=O)N1CCc2sccc2C1 (configuration not stated)	-3.67%
CC(Nc1nc(-c2ccncc2)nc2c1CCNC2)c1ccccc1 (configuration not stated)	-9.03%
COc1ccc(C(=O)NCc2ccon2)cc1F	-5.07%
CCOC(=O)N1CCC2(CCCN(C3CCOCC3)C2=O)C1 (configuration not stated)	-8.17%

Compound	cytotoxicity at 70.5 h
CCOCCCNc1nc2c(s1)c(C)nn2C	-5.29%
CS(=O)(=O)NC1CCN(C(=O)c2coc(CN3CCOCC3)c2)CC1	-2.89%
Cc1cc(C)c(C(=O)NC(CN2CCCC2)c2ccccc2)c(=O)[nH]1 (configuration not stated)	-20.3%
Cc1oc(-c2cccc(F)c2F)nc1CN(C)CCC(C)(C)O	26.5%
c1ccc2oc(N3CCCC4(CCOC4)C3)nc2c1 (configuration not stated)	-5.71%
CC(=O)Nc1ccc(CN2C[C@H]3CC[C@@H]2CN(c2ncccn2)C3)cc1	-4.04%
CCCc1nnc(NCCc2noc(C3CC3)n2)o1	-9.24%
O=C1N(Cc2ccc(F)c(F)c2)CCCC1(O)CNCC1CCCCC1 (configuration not stated)	18.7%
CCN1CCC(Cn2ccc3c(OC)c(OC)ccc3c2=O)C1 (configuration not stated)	-2.32%
COc1ccc2c(c1)OCC(Cc1cncc(N)c1)C2 (configuration not stated)	8.44%
Cc1[nH]c2c(F)cccc2c1CC(=O)NCc1csc(N(C)C)n1	39.7%
O=C(O)c1ccnc(-c2ccnc(N3CCC(F)(F)CC3)n2)c1	21%
O=C1NCCN2CCN(C(=O)Nc3ccc(-c4ccccc4)cc3)CC12 (configuration not stated)	10.4%
O=C(CC1CCCCC1)N1C[C@H]2CC[C@@H]1CN(Cc1cccnc1)C2	-13.3%
CNC(=O)[C@@H]1C[C@@H](NC(=O)c2cn(C)nc2C)CN1Cc1sccc1C	-2.42%
CCn1c(N)nc2cc(C(=O)NCc3cccc(C)c3C)cnc21	17.1%
CC(C)N1CCO[C@H]2CN(C(=O)c3ccsc3)C[C@H]21	-7.23%
O=C(c1cccc(F)c1)N1CCC2(CC1)CN(c1ccccn1)CCO2	-8.22%
CCOCC1CN(Cc2cccs2)Cc2nn(C)cc21 (configuration not stated)	-6.21%
CN(Cc1ccncc1)C1COC2(CCN(Cc3nccn3C)CC2)C1 (configuration not stated)	-8.93%
